The results in this text go back to article PMC7504721, “Targeting the Initiator Protease of the Classical Pathway of Complement Using Fragment-Based Drug Discovery” (Molecules, 2020).

This assay deals with T1, full-length C1r (Homo sapiens, UniProt P00736).
T1 construct: purchased Complement Technology (CompTech)
T1 sequence (P00736 18-463 limits assumed): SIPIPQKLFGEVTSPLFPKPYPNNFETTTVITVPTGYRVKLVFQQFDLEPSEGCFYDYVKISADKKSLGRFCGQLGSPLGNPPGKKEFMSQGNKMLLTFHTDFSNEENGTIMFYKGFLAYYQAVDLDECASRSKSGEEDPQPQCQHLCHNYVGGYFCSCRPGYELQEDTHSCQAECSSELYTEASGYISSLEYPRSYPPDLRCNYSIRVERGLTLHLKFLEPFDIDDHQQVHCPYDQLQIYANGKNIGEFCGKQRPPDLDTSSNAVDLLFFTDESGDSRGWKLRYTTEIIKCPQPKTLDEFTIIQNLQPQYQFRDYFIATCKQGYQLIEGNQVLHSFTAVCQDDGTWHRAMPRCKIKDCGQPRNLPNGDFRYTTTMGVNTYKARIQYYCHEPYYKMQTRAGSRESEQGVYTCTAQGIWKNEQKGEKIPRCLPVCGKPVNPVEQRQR
T1 sequence (P00736 464-705 limits assumed): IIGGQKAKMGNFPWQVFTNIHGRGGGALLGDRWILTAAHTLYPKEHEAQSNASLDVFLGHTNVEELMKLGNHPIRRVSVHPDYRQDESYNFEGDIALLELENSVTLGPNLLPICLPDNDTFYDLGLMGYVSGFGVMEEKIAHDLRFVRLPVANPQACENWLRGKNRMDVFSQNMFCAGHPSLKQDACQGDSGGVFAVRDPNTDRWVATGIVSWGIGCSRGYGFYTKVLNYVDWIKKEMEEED
The assay is described as follows: SPR domain mapping, full-length C1r surface. It counts as binding. Particulars: duplicate. The source says: Figure 5 Selectivity and mechanistic analysis of CMP-1611 and CMP-1696. (A) Chemical structure of CMP-1611. (B) Chemical structure of CMP-1696. (C) Dose-dependent inhibition by CMP-1611 and CMP-1696 in a classical pathway-specific ELISA. Data were fit with GraphPad Prism using non-linear regression with a log(inhibitor) vs. response model. […] The CMP-778 inhibitory response could not be fit to a dose-response inhibition model. (D) Complement pathway selectivity of CMP-1611 and CMP-1696. Compounds were assessed for their ability to inhibit activation of complement via the lectin and alternative pathways using single doses of 500 μM compound in triplicate. To ensure only lectin pathway activation, 2% (v/v) C1q-depleted serum (CompTech) was used and mannan was used as the activator. To match serum sources and amounts for this assay, the classical pathway assays were repeated here using serum from CompTech at 2% (v/v) final concentration. Alternative pathway activation assays were performed using 20% (v/v) serum (CompTech), alternative pathway buffers, and C3b detection (see Methods and Materials for details). […] We then injected each compound simultaneously over the three surfaces at 500 μM and measured binding responses. […] All sensorgrams were reference and blank subtracted and analyzed using T200 Evaluation Software (GE Healthcare, Chicago, IL, USA).

Regarding `N=C(N)c1ccc2cc(OC(=O)c3ccc(N=C(N)N)cc3)ccc2c1` [Futhan, reference compound], where the note is “10 µM Futhan”, the “relative SPR binding response, full-length C1r” value was “bound C1r and C1r-CCP2-SP similarly”.
`COCc1nc(-c2ccc(OC3CNC3)cc2)no1` [CMP-1696]: where the note is “500 µM compound”, the “relative SPR binding response, full-length C1r” value is “high binding”.
